For 19 compounds, pKb, Ki and Response results are on record in ChEMBL document CHEMBL1137857, “Design and synthesis of substituted N-methylbenzamide analogues derived from SR 48,968 as neurokinin-2 receptor antagonists” (Bioorg Med Chem Lett, 2004).

The term pKb denotes the negative decadic logarithm of the Kb, by convention in mol/L. The Ki is a dissociation constant, usually derived from enzyme kinetics or from competition with a known ligand. High values mean weaker binding, low ones tighter binding.

A value given as a limit tells only on which side of the number the result lay.

For the first assay, the target named is T1, Substance-K receptor (Cavia porcellus) (UniProt Q64077).
T1 sequence (whole entry): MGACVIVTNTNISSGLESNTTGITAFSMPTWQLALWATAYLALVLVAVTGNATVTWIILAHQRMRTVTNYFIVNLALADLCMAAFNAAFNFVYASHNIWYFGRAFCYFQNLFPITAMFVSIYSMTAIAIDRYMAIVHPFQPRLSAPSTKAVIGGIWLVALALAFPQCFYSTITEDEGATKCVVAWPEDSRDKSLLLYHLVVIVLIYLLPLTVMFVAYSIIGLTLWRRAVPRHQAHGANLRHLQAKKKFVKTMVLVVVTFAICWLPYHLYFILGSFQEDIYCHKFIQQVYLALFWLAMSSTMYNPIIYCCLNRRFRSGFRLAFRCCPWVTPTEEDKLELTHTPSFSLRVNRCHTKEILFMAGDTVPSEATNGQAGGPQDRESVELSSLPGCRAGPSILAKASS
Description: Antagonistic activity against Tachykinin receptor 2 binding to [b-Ala8] NKA(4-10) in isolated guinea pig trachea.
As to `CN(C[C@H](CCN1CCC(O)(c2ccccc2)CC1)c1ccc(Cl)c(Cl)c1)C(=O)c1cccc(NC(=O)CBr)c1`, the negative-log Kb (pKb) was under 8.

In turn, `CN(C[C@H](CCN1CCC(O)(c2ccccc2)CC1)c1ccc(Cl)c(Cl)c1)C(=O)c1ccccc1NC(=O)CBr` returned a pKb of under 8. Compound `CN(C[C@H](CCN1CCC(O)(c2ccccc2)CC1)c1ccc(Cl)c(Cl)c1)C(=O)c1cccc(N)c1` had a pKb of 9.4.

`CN(C[C@H](CCN1CCC(O)(c2ccccc2)CC1)c1ccc(Cl)c(Cl)c1)C(=O)c1ccccc1N` had a pKb of 9.4.

On to `CN(C[C@H](CCN1CCC(O)(c2ccccc2)CC1)c1ccc(Cl)c(Cl)c1)C(=O)c1cccc(N=C=S)c1`, for which the negative-log Kb (pKb) was under 8. On the same count and under the same terms, under `CC(=O)Nc1cccc(C(=O)N(C)C[C@H](CCN2CCC(O)(c3ccccc3)CC2)c2ccc(Cl)c(Cl)c2)c1` stands under 8; under `CN(C[C@H](CCN1CCC(O)(c2ccccc2)CC1)c1ccc(Cl)c(Cl)c1)C(=O)c1ccc(N)cc1`, 9.1; under `CN(C[C@H](CCN1CCC(O)(c2ccccc2)CC1)c1ccc(Cl)c(Cl)c1)C(=O)c1ccc(F)cc1`, 9.7. With `CC(=O)Nc1ccc(C(=O)N(C)C[C@H](CCN2CCC(O)(c3ccccc3)CC2)c2ccc(Cl)c(Cl)c2)cc1`, the negative-log Kb (pKb) is 8.4.

For `CC(=O)NC1(c2ccccc2)CCN(CCC(CN(C)C(=O)c2ccccc2)c2ccc(Cl)c(Cl)c2)CC1` (single isomer, unassigned) [SAREDUTANT], the pKb came to 9.1. On the same count and under the same terms, under `CC(=O)Nc1ccccc1C(=O)N(C)C[C@H](CCN1CCC(O)(c2ccccc2)CC1)c1ccc(Cl)c(Cl)c1` stands under 8. Still for that read-out and setting: under `CN(C[C@H](CCN1CCC(O)(c2ccccc2)CC1)c1ccc(Cl)c(Cl)c1)C(=O)c1cccc([N+](=O)[O-])c1` stands under 8; under `CN(C[C@H](CCN1CCC(O)(c2ccccc2)CC1)c1ccc(Cl)c(Cl)c1)C(=O)c1ccc(N=C=S)cc1`, under 8. For `CN(C[C@H](CCN1CCC(O)(c2ccccc2)CC1)c1ccc(Cl)c(Cl)c1)C(=O)c1ccc(NC(=O)CBr)cc1`, the pKb was 8.3. The same measure, in the same setting: under `CN(C[C@H](CCN1CCC(O)(c2ccccc2)CC1)c1ccc(Cl)c(Cl)c1)C(=O)c1ccccc1N=C=S` stands 8.5. In turn, `CN(C[C@H](CCN1CCC(O)(c2ccccc2)CC1)c1ccc(Cl)c(Cl)c1)C(=O)c1ccc([N+](=O)[O-])cc1` had a negative-log Kb (pKb) of 8.55.

The compound `CN(C[C@H](CCN1CCC(O)(c2ccccc2)CC1)c1ccc(Cl)c(Cl)c1)C(=O)c1ccccc1[N+](=O)[O-]` came in with a negative logarithm of the Kb (pKb) of 8.5. The pKb values of the last two compounds are within 0.2 log units of each other.

The next assay concerns the target T2, Substance-K receptor (Bos taurus, UniProt P05363).
T2 sequence (P05363 whole entry): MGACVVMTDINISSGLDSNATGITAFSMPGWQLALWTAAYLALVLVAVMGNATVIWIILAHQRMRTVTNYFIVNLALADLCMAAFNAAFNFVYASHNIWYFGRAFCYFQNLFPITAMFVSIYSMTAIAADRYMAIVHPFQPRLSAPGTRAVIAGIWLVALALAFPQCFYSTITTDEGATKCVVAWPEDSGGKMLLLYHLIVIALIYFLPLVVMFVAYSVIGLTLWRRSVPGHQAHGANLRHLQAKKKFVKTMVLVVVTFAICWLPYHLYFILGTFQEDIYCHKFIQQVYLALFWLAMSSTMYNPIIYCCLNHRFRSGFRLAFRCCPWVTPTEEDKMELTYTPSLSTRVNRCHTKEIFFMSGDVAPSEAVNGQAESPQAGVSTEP
Description: Binding affinity against bovine Tachykinin receptor 2.
Compound `CC(=O)NC1(c2ccccc2)CCN(CCC(CN(C)C(=O)c2ccccc2)c2ccc(Cl)c(Cl)c2)CC1` (single isomer, unassigned) [SAREDUTANT] registered an inhibitory constant (Ki) of 0.5 nM. `CN(CC(CCN1CCC(O)(c2ccccc2)CC1)c1ccc(Cl)c(Cl)c1)C(=O)c1ccccc1` (stereo unspecified) yielded an inhibition constant (Ki) of 1 nM.

Test system in a further assay: not listed separately
As to the kind of experiment: Tested for the ability to inhibit maximum contraction obtained in the presence of [b-Ala8] NKA(4-10) in isolated guinea pig trachea.
For `CN(C[C@H](CCN1CCC(O)(c2ccccc2)CC1)c1ccc(Cl)c(Cl)c1)C(=O)c1cccc(NC(=O)CBr)c1`, the Response was 98%.

As to `CN(C[C@H](CCN1CCC(O)(c2ccccc2)CC1)c1ccc(Cl)c(Cl)c1)C(=O)c1ccccc1NC(=O)CBr`, the Response was 97.1%. The same measure, in the same setting: under `CN(C[C@H](CCN1CCC(O)(c2ccccc2)CC1)c1ccc(Cl)c(Cl)c1)C(=O)c1cccc(N)c1` stands 97.4%; under `CN(C[C@H](CCN1CCC(O)(c2ccccc2)CC1)c1ccc(Cl)c(Cl)c1)C(=O)c1ccccc1N`, 98.2%; under `CN(C[C@H](CCN1CCC(O)(c2ccccc2)CC1)c1ccc(Cl)c(Cl)c1)C(=O)c1cccc(N=C=S)c1`, 95.8%. `CC(=O)Nc1cccc(C(=O)N(C)C[C@H](CCN2CCC(O)(c3ccccc3)CC2)c2ccc(Cl)c(Cl)c2)c1`: the Response turned out to be 96.3%. With `CN(C[C@H](CCN1CCC(O)(c2ccccc2)CC1)c1ccc(Cl)c(Cl)c1)C(=O)c1ccc(N)cc1`, the Response turned out to be 95.9%. Consider `CN(C[C@H](CCN1CCC(O)(c2ccccc2)CC1)c1ccc(Cl)c(Cl)c1)C(=O)c1ccc(F)cc1`, for which the Response was 94.7%. Still for that read-out and setting: under `CC(=O)Nc1ccc(C(=O)N(C)C[C@H](CCN2CCC(O)(c3ccccc3)CC2)c2ccc(Cl)c(Cl)c2)cc1` stands 96.6%; under `CC(=O)Nc1ccccc1C(=O)N(C)C[C@H](CCN1CCC(O)(c2ccccc2)CC1)c1ccc(Cl)c(Cl)c1`, 98.3%. On to `CN(C[C@H](CCN1CCC(O)(c2ccccc2)CC1)c1ccc(Cl)c(Cl)c1)C(=O)c1cccc([N+](=O)[O-])c1`, for which the Response is given as 98.6%. As to `CN(C[C@H](CCN1CCC(O)(c2ccccc2)CC1)c1ccc(Cl)c(Cl)c1)C(=O)c1ccc(N=C=S)cc1`, the Response was found to be 97.6%. Consider `CN(C[C@H](CCN1CCC(O)(c2ccccc2)CC1)c1ccc(Cl)c(Cl)c1)C(=O)c1ccc(NC(=O)CBr)cc1`, for which the Response worked out at 96%. `CN(C[C@H](CCN1CCC(O)(c2ccccc2)CC1)c1ccc(Cl)c(Cl)c1)C(=O)c1ccccc1N=C=S`: the Response was found to be 95.5%. For the compound `CN(C[C@H](CCN1CCC(O)(c2ccccc2)CC1)c1ccc(Cl)c(Cl)c1)C(=O)c1ccc([N+](=O)[O-])cc1`, the Response is 98%. `CN(C[C@H](CCN1CCC(O)(c2ccccc2)CC1)c1ccc(Cl)c(Cl)c1)C(=O)c1ccccc1[N+](=O)[O-]`: the Response was determined as 92.7%.

`CN(C[C@H](CCN1CCC(O)(c2ccccc2)CC1)c1ccc(Cl)c(Cl)c1)C(=O)c1ccccc1`: the Response came to 93.3%.
